Source: patent publication US8512739B2, “Use of low-glycemic sweeteners in food and beverage compositions” (Cargill, Incorporated, priority 2002, dated 2013)

system: Enzyme from the LM NRRL-B-21297 strain; test: Suitability of acceptors: oligosaccharide formation from sucrose and acceptor; format: biochemical, Leuconostoc mesenteroides; conditions: 0.4% by weight each of sucrose and acceptor, pH 6, 2 hours at 37° C.; DP3-DP7 minus starting material
Procedure: Enzyme from the LM NRRL-B-21297 strain was tested to determine the suitability of various acceptors. Enzyme was prepared using the methods described herein.
In determining the suitability of the preparation of the sucrose/acceptor products, 0.4% by weight of each sucrose and acceptor were mixed with enzyme solution in 0.01 M sodium gluconate buffer, pH 6, and the reaction proceeded for 2 hours at 37° C.
The carbohydrate profiles of products generated by the enzyme reactions with the blends of sucrose and syrups and syrup solids herein, were analyzed by high performance liquid chromatography (HPLC) using two (2) Bio-Rad Aminex HPX42A carbohydrate columns (300 mm×7.8 mm) available from Bio-Rad, Hercules, Calif., in succession, with water as the eluate at 0.2 ml/min, at a temperature of 65° C.
The reaction rate was estimated based on the amount of oligosaccharides generated from each acceptor and normalized against the fructose concentration in each reaction. The results are reported below in Table 2.0. The values reported for oligosaccharides to fructose are for DP3-DP7 minus starting material.

Q: How did the “Weight Ratio of Oligosaccharide to Fructose” value (shortened to “Weight Ratio”) turn out when `OC[C@H]1O[C@H](O[C@H]2[C@H](O)[C@@H](O)C(O)O[C@@H]2CO)[C@H](O)[C@@H](O)[C@@H]1O` (mixture of isomers) [Maltose, reference compound] was run?
A: The value was 2.02.

Q: How did the “Weight Ratio” value turn out when `OC[C@H]1O[C@H](OC[C@H]2OC(O)[C@H](O)[C@@H](O)[C@@H]2O)[C@H](O)[C@@H](O)[C@@H]1O` (stereo partly drawn) [Isomaltose] was run?
A: Its value is 0.93.

Q: Which “Weight Ratio” value does the source give for `OC[C@H]1O[C@H](O[C@H]2[C@H](O)[C@@H](O)[C@@H](O[C@H]3[C@H](O)[C@@H](O)[C@@H](O[C@H]4[C@H](O)[C@@H](O)C(O)O[C@@H]4CO)O[C@@H]3CO)O[C@@H]2CO)[C@H](O)[C@@H](O)[C@@H]1O` (stereo partly drawn) [Maltotetrose] here?
A: The value was 0.38.

Q: Which “Weight Ratio” value does the source give for `OC[C@H]1O[C@H](OC[C@H]2O[C@H](O[C@H]3[C@H](O)[C@@H](O)C(O)O[C@@H]3CO)[C@H](O)[C@@H](O)[C@@H]2O)[C@H](O)[C@@H](O)[C@@H]1O` (stereo partly drawn) [Panose] here?
A: The value was 1.56.

Q: Maltotriose was tested. Which “Weight Ratio” value did it give?
A: The value was 0.53.

same assay, conditions: compared with the acceptors of Table 2.0, two hour reaction time

Q: `O=C[C@@H](O)[C@H](O)[C@H](O)CO` [arabinose] was tested. Which suitability as acceptor did it give?
A: The suitability as acceptor was “not as effective acceptors”.

Q: For `O[C@H]1[C@H](O)[C@@H](O)[C@H](O)[C@@H](O)[C@H]1O` [myo-inositol], which suitability as acceptor is on record?
A: Its suitability as acceptor is “not as effective acceptors”.

Q: For `O=C[C@H](O)[C@@H](O)[C@H](O)CO` [xylose], which suitability as acceptor is on record?
A: The suitability as acceptor was “not as effective acceptors”.

system: rat intestinal powder; test: In vitro digestibility assay using rat intestinal powder; format: in vitro ADME; conditions: in 4 hours
Procedure: The results provided in this example are derived from in vitro digestibility assays using rat intestinal powder available from Sigma/Aldrich, Saint Louis, Mo., Catalog Number I-1630). […] Free glucose concentration in the reaction mixture was analyzed over time by the HPLC method described above.

Q: Which digested does the source give for `OC[C@H]1O[C@H](O[C@H]2[C@H](O)[C@@H](O)C(O)O[C@@H]2CO)[C@H](O)[C@@H](O)[C@@H]1O` (mixture of isomers) [Maltose, reference compound] here?
A: Its digested is 88%.
